Test results published in patent publication US20090131430A1, “PYRIDO'2,3-DIPYRIMIDINES AS ANTI-INFLAMMATORY AGENTS” (priority 2004, published 2009).

test system: TNF-α release from peripheral blood mononuclear cells; test: Cell based assay for TNF-α release, LPS stimulation of human PBMNC's (ELISA); conditions: PBMC, LPS 20 ng/ml, overnight, span over the group, units given in the value
Description: Human whole blood was collected in vacutainer tubes containing EDTA as an anti coagulant. A blood sample (7 ml) was carefully layered over 5 ml PMN Cell Isolation Medium (Robbins Scientific) in a 15 ml round bottom centrifuge tubes. The sample was centrifuged at 450-500×g for 30-35 minutes in a swing-out rotor at room temperature. After centrifugation the top band of cells were removed and washed 3 times with PBS w/o calcium or magnesium. The cells were centrifuged at 400×g for 10 minutes at room temperature. The cells were resuspended in Macrophage Serum Free Medium (Gibco BRL) at concentration of 2 million cells/ml.
PBM cells (0.1 ml; 2 million/ml) were co-incubated with 0.1 ml of compound (10-0.41 μM, final concentration) for 1 hour in flat bottom 96 well microtiter plate. Compounds were dissolved in DMSO initially and diluted in TCM for a final concentration of 0.1% DMSO. LPS (Cal biochem, 20 ng/ml, final concentration) was then added at volume of 0.010 ml. Cultures were incubated overnight at 37° C.). Supernatant were then removed and tested by ELISA for TNF-α release. Viability was analyzed using MTT. After 0.1 ml supernatant was collected, 0.1 ml of 0.25 mg/ml of MTT was added to remaining 0.1 ml of cells. The cells were incubated at 37° C. for 2-4 hours, then the O.D was measured at 490-650 nm n.
The TNF-α levels released in the culture medium were quantitated by ELISA. Inhibitory potency was expressed as IC50.

Row | IC50 | SMILES
1 | 12 to 2300 nM | NC(=O)N1CC2C(C1)C2Nc1ncc2cc(-c3ccccc3Cl)c(=O)n(C3CC3)c2n1 (stereo not shown) [Compound No. 63, 6-[6-(2-Chlorophenyl)-8-cyclopropyl-7-oxo-7,8-dihydro-pyrido[2,3-d]pyrimidin-2-ylamino]-3-aza-bicyclo[3.1.0]hexane-3-carboxylic acid amide]
2 | 12 to 2300 nM | Cn1c(=O)c(-c2ccccc2Cl)cc2cnc(NC3C4CN(S(C)(=O)=O)CC43)nc21 (stereo not shown) [Compound No. 4, 6-(2-Chlorophenyl)-2-(3-methanesulphonyl-3-aza-bicyclo[3.1.0]hex-6-ylamino)-8-methyl-8H-pyrido[2,3-d]pyrimidin-7-one]
3 | 12 to 2300 nM | O=c1c(-c2ccccc2Cl)cc2cnc(NC3C4CNCC43)nc2n1C1CC1 (stereo not shown) [Compound No. 19, 2-(3-Aza-bicyclo[3.1.0]hex-6-ylamino)-6-(2-chlorophenyl)-8-cyclopropyl-8H-pyrido[2,3-d]pyrimidin-7-one]
4 | 12 to 2300 nM | N#CCn1c(=O)c(-c2ccccc2Cl)cc2cnc(NC3C4CN(C(=O)Nc5ccc(F)cc5)CC43)nc21 (stereo not shown) [Compound No. 57, 6-[6-(2-Chlorophenyl)-8-cyanomethyl-7-oxo-7,8-dihydro-pyrido[2,3-d]pyrimidin-2-ylamino]-3-aza-bicyclo[3.1.0]hexane-3-carboxylic acid (4-fluorophenyl)-amide]
5 | 12 to 2300 nM | CN1CC2C(C1)C2Nc1ncc2cc(-c3ccccc3Cl)c(=O)n(C3CC3)c2n1 (stereo not shown) [Compound No. 20, 6-(2-Chlorophenyl)-8-cyclopropyl-2-(3-methyl-3-aza-bicyclo[3.1.0]hex-6-ylamino)-8H-pyrido[2,3-d]pyrimidin-7-one]
6 | 12 to 2300 nM | O=c1c(-c2ccccc2Cl)cc2cnc(NC3C4CN(Cc5ccccc5)CC43)nc2n1C1CC1 (stereo not shown) [Compound No. 17, 2-(3-Benzyl-3-aza-bicyclo[3.1.0]hex-6-ylamino)-6-(2-chlorophenyl)-8-cyclopropyl-8H-pyrido[2,3-d]pyrimidin-7-one]
7 | 12 to 2300 nM | CC(=O)N1CC2C(C1)C2Nc1ncc2cc(-c3ccccc3Cl)c(=O)n(C3CC3)c2n1 (stereo not shown) [Compound No. 23, 2-(3-Acetyl-3-aza-bicyclo[3.1.0]hex-6-ylamino)-6-(2-chlorophenyl)-8-cyclopropyl-8H-pyrido[2,3-d]pyrimidin-7-one]
8 | 12 to 2300 nM | Cn1c(=O)c(-c2ccccc2Cl)cc2cnc(NC3C4CN(C(=O)Nc5ccc(F)cc5)CC43)nc21 (stereo not shown) [Compound No. 2, 6-[6-(2-Chlorophenyl)-8-methyl-7-oxo-7,8-dihydro-pyrido[2,3-d]pyrimidin-2-ylamino]-3-aza-bicyclo[3.1.0]hexane-3-carboxylic acid-(4-fluorophenyl)-amide]
9 | 12 to 2300 nM | CC(C)(C)CC(C)(C)NC(=O)N1CC2C(C1)C2Nc1ncc2cc(-c3ccccc3Cl)c(=O)n(C3CC3)c2n1 (stereo not shown) [Compound No. 24]
10 | 12 to 2300 nM | O=C(Nc1ccc(F)cc1)N1CC2C(C1)C2Nc1ncc2cc(-c3ccccc3Cl)c(=O)n(C3CC3)c2n1 (stereo not shown) [Compound No. 26, 6-[6-(2-Chlorophenyl)-8-cyclopropyl-7-oxo-7,8-dihydro-pyrido[2,3-d]pyrimidin-2-ylamino]-3-aza-bicyclo[3.1.0]hexane-3-carboxylic acid-(4-fluorophenyl)-amide]
11 | 12 to 2300 nM | O=C(OCc1ccccc1)N1CC2C(C1)C2Nc1ncc2cc(-c3ccccc3Cl)c(=O)n(C3CC3)c2n1 (stereo not shown) [Compound No. 18, 6-[6-(2-Chlorophenyl)-8-cyclopropyl-7-oxo-7,8-dihydro-pyrido[2,3-d]pyrimidin-2-ylamino]-3-aza-bicyclo[3.1.0]hexane-3-carboxylic acid benzyl ester]

More lines, now with the values behind:

Row | SMILES | IC50
12 | Cn1c(=O)c(-c2ccccc2Cl)cc2cnc(NC3C4CN(C(=O)OCc5ccccc5)CC43)nc21 (stereo not shown) [Compound No. 6, 6-[6-(2-Chlorophenyl)-8-methyl-7-oxo-7,8-dihydro-pyrido[2,3-d]pyrimidin-2-ylamino]-3-aza-bicyclo[3.1.0]hexane-3-carboxylic acid benzyl ester] | 12 to 2300 nM
13 | O=c1c(-c2ccccc2Cl)cc2cnc(NCC3C4CN(Cc5ccccc5)CC34)nc2n1-c1ccc(F)cc1 (stereo not shown) [Compound No. 16, 2-[(3-Benzyl-3-aza-bicyclo[3.1.0]hex-6-ylmethyl)-amino]-6-(2-chlorophenyl)-8-(4-fluorophenyl)-8H-pyrido[2,3-d]pyrimidin-7-one] | 12 to 2300 nM
14 | N#CCn1c(=O)c(-c2ccccc2Cl)cc2cnc(NC3C4CN(Cc5ccccc5)CC43)nc21 (stereo not shown) [Compound No. 56, [2-(3-Benzyl-3-aza-bicycyclo[3.1.0]hex-6-ylamino)-6-(2-chlorophenyl)-7-oxo-7H-pyrido[2,3-d]pyrimidin-8-yl]-acetonitrile] | 12 to 2300 nM
15 | O=c1c(-c2ccccc2Cl)cc2cnc(NC3C4COCC3CN(Cc3ccccc3)C4)nc2n1C1CC1 (stereo not shown) [Compound No. 33, 2-(7-Benzyl-3-oxa-7-aza-bicyclo[3.3.1]non-9-ylamino)-6-(2-chlorophenyl)-8-cyclopropyl-8H-pyrido[2,3-d]pyrimidin-7-one] | 12 to 2300 nM
16 | O=C(OCc1ccccc1)N1CC2C(C1)C2Nc1ncc2cc(-c3ccccc3Cl)c(=O)n(-c3ccc(F)cc3)c2n1 (stereo not shown) [Compound No. 12, 6-[6-(2-Chlorophenyl)-8-(4-fluorophenyl)-7-oxo-7,8-dihydro-pyrido[2,3-d]pyrimidin-2-ylamino]-3-aza-bicyclo[3.1.0]hexane-3-carboxylic acid benzyl ester] | 12 to 2300 nM
17 | O=c1[nH]c2nc(NC3C4CN(Cc5ccccc5)CC43)ncc2cc1-c1ccccc1Cl (stereo not shown) [Compound No. 27, 2-(3-Benzyl-3-aza-bicyclo[3.1.0]hex-6-ylamino)-6-(2-chlorophenyl)-8H-pyrido[2,3-d]pyrimidin-7-one] | 12 to 2300 nM
18 | O=c1[nH]c2nc(NC3C4CNCC43)ncc2cc1-c1ccccc1Cl (stereo not shown) [Compound No. 58, 2-(3-Aza-bicyclo[3.1.0]hex-6-ylamino)-6-(2-chlorophenyl)-8H-pyrido[2,3-d]pyrimidin-7-one] | 12 to 2300 nM

test system: not listed separately; test: Precipitate formation in the DMSO solvent used; type: physicochemical; conditions: DMSO solvent used in testing

Row | SMILES | formed a precipitate in the DMSO solvent used
19 | Cc1ccc(S(=O)(=O)N2CC3C(C2)C3Nc2ncc3cc(-c4ccccc4Cl)c(=O)n(C4CC4)c3n2)cc1 (stereo not shown) [Compound No. 21, 6-(2-Chlorophenyl)-8-cyclopropyl-2-[3-(toluene-4-sulphonyl)-3-aza-bicyclo[3.1.0]hex-6-ylamino]-8H-pyrido[2,3-d]pyrimidin-7-one] | formed a precipitate in the DMSO solvent used
20 | Cc1ccc(S(=O)(=O)N2CC3C(C2)C3Nc2ncc3cc(-c4ccccc4Cl)c(=O)n(C)c3n2)cc1 (stereo not shown) [Compound No. 43, 6-(2-Chlorophenyl)-8-methyl-2-[3-(toluene-4-sulfonyl)-3-aza-bicyclo[3.1.0]hex-6-ylamino]-8H-pyrido[2,3-d]pyrimidin-7-one] | formed a precipitate in the DMSO solvent used
21 | O=c1[nH]c2nc(NC3C4COCC3CN(Cc3ccccc3)C4)ncc2cc1-c1ccccc1Cl (stereo not shown) [Compound No. 61, 2-(7-Benzyl-3-oxa-7-aza-bicyclo[3.3.1]non-9-ylamino)-6-(2-chlorophenyl)-8H-pyrido[2,3-d]pyrimidin-7-one] | formed a precipitate in the DMSO solvent used
22 | CC(C)(C)CC(C)(C)NC(=O)N1CC2C(C1)C2Nc1ncc2cc(-c3ccccc3Cl)c(=O)n(C3CC3)c2n1 (stereo not shown) [Compound No. 24] | formed a precipitate in the DMSO solvent used
23 | Cn1c(=O)c(-c2ccccc2Cl)cc2cnc(NC3C4CN(S(=O)(=O)c5ccccc5)CC43)nc21 (stereo not shown) [Compound No. 41, 2-(3-Benzenesulphonyl-3-aza-bicyclo[3.1.0]hex-6-ylamino)-6-(2-chlorophenyl)-8-methyl-8H-pyrido[2,3-d]pyrimidin-7-one] | formed a precipitate in the DMSO solvent used
24 | O=c1c(-c2ccccc2Cl)cc2cnc(NC3C4CN(S(=O)(=O)c5ccc(C(F)(F)F)cc5)CC43)nc2n1C1CC1 (stereo not shown) [Compound No. 37, 6-(2-Chlorophenyl)-8-cyclopropyl-2-[3-(4-trifluoromethylbenzenesulfonyl)-3-aza-bicyclo[3.1.0]hex-6-ylamino]-8H-pyrido[2,3-d]pyrimidin-7-one] | formed a precipitate in the DMSO solvent used

test system: not given; test: not given; conditions: not given

Row | melting point | SMILES
25 | 107.4 to 110.4 °C | O=c1c(-c2ccccc2Cl)cc2cnc(NC3C4COCC3CN(Cc3ccccc3)C4)nc2n1-c1ccc(F)cc1 (stereo not shown) [Compound No. 52, 2-(7-Benzyl-3-oxa-7-aza-bicyclo[3.3.1]non-9-ylamino)-6-(2-chlorophenyl)-8-(4-fluorophenyl)-8H-pyrido[2,3-d]pyrimidin-7-one]
26 | 118.7 to 125.2 °C | CCOC(=O)N1CC2C(C1)C2Nc1ncc2cc(-c3ccccc3Cl)c(=O)n(C)c2n1 (stereo not shown) [Compound No. 68, 6-[6-(2-Chlorophenyl)-8-methyl-7-oxo-7,8-dihydro-pyrido[2,-d]pyrimidin-2-ylamino]-3-aza-bicyclo[3.1.0]hexane-3-carboxylic acid ethyl ester]
27 | 76.9 to 82 °C | Cn1c(=O)c(-c2ccccc2Cl)cc2cnc(NC3CC4CCCC(C3)N4Cc3ccccc3)nc21 (stereo not shown)
28 | 147.4 to 153.8 °C | Cn1c(=O)c(-c2ccccc2Cl)cc2cnc(NC3CC4CCC(C3)N4Cc3ccccc3)nc21 (stereo not shown)
